From US11091478B2 (Fochon Pharmaceuticals, Ltd., priority 2017, dated 2021)

Assays:
RS4;11 cells = assay: Cell proliferation assay (MTS), RS4;11 cells, 72 h; assay type: cell-based; conditions: Homo sapiens, RS4-11, 72 h
How it was run: (§1)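 Proliferation was scored by MTS (2 h, then SDS stop, A490 with 650 nm reference) and IC50 derived. Compound ran at nine final concentrations from 1.5 to 10000 nM. DOHH2 were incubated 120 h and RS4;11 72 h, both plated at 5000 cells/well in RPMI-1640 plus 10% FBS.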

DOHH2 cells = assay: Cell proliferation assay (MTS), DOHH2 cells, 120 h; assay type: cell-based; conditions: Homo sapiens, DOHH-2, 120 h
How it was run: as §1

SMILES	IC50 (RS4;11 cells)	IC50 (DOHH2 cells)
CC1(C)CCC(CN2CCN(c3ccc(C(=O)NS(=O)(=O)c4cc5c(c([N+](=O)[O-])c4)O[C@@H](CN4CCOCC4)CO5)c(Oc4cnc5[nH]ccc5c4)c3)CC2)=C(c2ccc(Cl)cc2)C1 [Example 5-1, (S)-2-((1H-pyrrolo[2,3-b]pyridin-5-yl)oxy)-4-(4-((4′-chloro-5,5-dimethyl-3,4,5,6-tetrahydro-[1,1′-biphenyl]-2-yl)methyl)piperazin-1-yl)-N-((2-(morpholinomethyl)-8-nitro-2,3-dihydrobenzo[b][1,4]dioxin-6-yl)sulfonyl)benzamide]	9 nM	17 nM
CC1(C)CCC(CN2CCN(c3ccc(C(=O)NS(=O)(=O)c4cc5c(c([N+](=O)[O-])c4)O[C@H](CN4CCOCC4)CO5)c(Oc4cnc5[nH]ccc5c4)c3)CC2)=C(c2ccc(Cl)cc2)C1 [Example 5-3, (R)-2-((1H-pyrrolo[2,3-b]pyridin-5-yl)oxy)-4-(4-((4′-chloro-5,5-dimethyl-3,4,5,6-tetrahydro-[1,1′-biphenyl]-2-yl)methyl)piperazin-1-yl)-N-((2-(morpholinomethyl)-8-nitro-2,3-dihydrobenzo[b][1,4]dioxin-6-yl)sulfonyl)benzamide]	4 nM	12 nM
CN1CCN(C[C@@H]2COc3cc(S(=O)(=O)NC(=O)c4ccc(N5CCN(CC6=C(c7ccc(Cl)cc7)CC(C)(C)CC6)CC5)cc4Oc4cnc5[nH]ccc5c4)cc([N+](=O)[O-])c3O2)CC1 [Example 5-4]	34 nM	13 nM

Molecules with a lower IC50 (RS4;11 cells), results first:

IC50 (RS4;11 cells)	SMILES	IC50 (DOHH2 cells)
1 nM	CN1CCN(C[C@H]2COc3cc(S(=O)(=O)NC(=O)c4ccc(N5CCN(CC6=C(c7ccc(Cl)cc7)CC(C)(C)CC6)CC5)cc4Oc4cnc5[nH]ccc5c4)cc([N+](=O)[O-])c3O2)CC1 [Example 5-2]	25 nM
2 nM	CC1(C)CCC(CN2CCN(c3ccc(C(=O)NS(=O)(=O)c4cc5c(c([N+](=O)[O-])c4)N[C@H](CN4C[C@@H]6C[C@H]4CO6)CO5)c(-n4ncc5nc6[nH]ccc6cc54)c3)CC2)=C(c2ccc(Cl)cc2)C1 [Example 6-1, N—(((R)-3-(((1S,4S)-2-oxa-5-azabicyclo[2.2.1]heptan-5-yl)methyl)-5-nitro-3,4-dihydro-2H-benzo[b][1,4]oxazin-7-yl)sulfonyl)-4-(4-((4′-chloro-5,5-dimethyl-3,4,5,6-tetrahydro-[1,1′-biphenyl]-2-yl)methyl)piperazin-1-yl)-2-(pyrazolo[4,3-b]pyrrolo[3,2-e]pyridin-1(5H)-yl)benzamide]	73 nM
